Measured values reported in patent US20250177481A1, “SCO-spondin-derived polypeptides for enhancing synaptic transmission” (AXOLTIS PHARMA, priority 2021, published 2025).
“And” between values parts separate entries of the source, which are not always exact repeats. Identical values can stand only once. Positions of bridges follow the written chain, without caps; N, C: chain ends. No end group written: not given here.

Legend:
[1] = test system: Schaffer collateral-CA1 synaptic transmission in mouse hippocampal slices after OGD; experiment: fEPSP recovery after oxygen-glucose deprivation (OGD) in hippocampal slices, treatment during OGD (Example 7); type: cell-based, C57Bl6/J mice; conditions: NX218 250 μg/mL during OGD, n=9 slices
Procedure: Acute episodes of hypoxia may cause a depression in synaptic activity in many brain regions. […] To meet this goal, functional recovery was assessed by recording evoked field excitatory postsynaptic potentials (fEPSPs) in mouse hippocampal neurons, before and after oxygen-glucose deprivation (OGD).
Experiments were carried out with 4-5 weeks old male C57Bl6/J mice (approximately 20 grams) obtained from Charles River, France. In total, 9 mice were used in this study. Two slices were recorded from each mouse (one for the control condition and another for the NX218 condition). Animals were acclimated to laboratory housing conditions for 13 days prior to experimental use. Standard Food (Type a04, SAFE, France) was available ad libitum. Filtered mains drinking water ([…]) was available ad libitum.
Sagittal hippocampal brain slices were obtained using standard brain slicing methods (approximately 6 slices per mouse) (Knobloch et al. 2007). Mice were anesthetized with 5% isoflurane and then decapitated. Brain was dissected out of the cranium and immediately immersed in ice-cold freshly prepared artificial cerebrospinal fluid (aCSF) containing: 124 mM NaCl, 3.75 mM KCl, 2 mM MgSO4, 2 mM CaCl2, 26.5 mM NaHCO3, 1.25 mM NaH2PO4, 10 mM glucose, continuously oxygenated (95% O2, 5% CO2) (pH=7.4) for a total duration of 3-4 minutes. Acute slices (350 μm thick) were prepared using a vibratome (VT 1000S; Leica Microsystems, Bannockburn, IL). […]
For electrophysiological recordings, a single slice was placed in the recording chamber (room temperature), submerged and continuously superfused with gassed aCSF (95% O2, 5% CO2; pH=7.4) at a constant rate (2 mL min^−1) for the reminder of the experiment. Extracellular field excitatory postsynaptic potentials (fEPSPs) were recorded in the CA1 stratum radiatum using a glass micropipette filled with aCSF. fEPSPs were evoked by the electrical stimulation of Schaffer collateral-commissural pathway at 0.1 Hz (i.e., a single pulse every 10 s) with a glass stimulating electrode (borosilicate capillary glass with filament, standard wall; OD: 1.5 mm; ID: 0.86 mm; Length: 75 mm; ref: W3 30-0060 from Harvard Apparatus) placed in the stratum radiatum.
At the beginning of each experiment (when a stable fEPSP response was reached), Input/Output (I/O) curves were obtained by gradual increases in stimulus intensity (from 0 to 100 μA, 10 μA intervals) to determine the intensity of stimulation that was kept for the reminder of the experiment. Stable baseline fEPSPs was then recorded during 10 minutes by stimulating at 80% of maximal field amplitude (single pulse every 10 s, i.e., 0.1 Hz). […]

[2] = test system: Schaffer collateral-CA1 synaptic transmission in mouse hippocampal slices after OGD; experiment: fEPSP recovery after OGD in hippocampal slices, treatment from the end of OGD or during recovery plateau (Example 8); type: cell-based, C57Bl6/J mice; conditions: for averaged normalized f-EPSP slope: NX218 250 μg/mL from the end of OGD, n=10 slices
Procedure: Two extra slices were also be recorded to evaluate a possible curative capacity of NX218 against hypoxia.
Animals: see Example 7. In total, 10 mice were used in this study. An additional mouse was used to obtain two extra slices for preliminary recordings (“test slices)”.
Mice brain slice preparation: see Example 7
Conditions of Example 7 are used, except:
Measurements of evoked field excitatory postsynaptic potential (fEPSP) recovery after OGD were continued for 120 min from TO (OGD initiation). Two “test slices” were also done according to the experimental design described above.
Oxygen-glucose deprivation: see Example 7. In this study, the mean OGD duration was 10.6±1.0 min. Data processing and statistical analysis: see Example 7.

Substance: W-S-G-W-S-S-C-S-R-S-C-G [NX218] (WSGWSSCSRSCG; disulfide 7-11 (inferred))
- averaged normalized f-EPSP slope ([1]; 0-30 min after start of OGD, vehicle 31.618): 31.043 % of baseline
- averaged normalized f-EPSP slope ([1]; 30-60 min after start of OGD, vehicle 47.152): 61.7±5.0 % of baseline and 61.663 % of baseline
- averaged normalized f-EPSP slope ([1]; 60-90 min after start of OGD, vehicle 69.598): 88.0±2.6 % of baseline and 87.959 % of baseline
- averaged normalized f-EPSP slope ([1]; last 10 min (of 90 min) after start of OGD, vehicle 72.432): 92.6±2.4 % of baseline and 92.639 % of baseline
- averaged normalized f-EPSP slope ([2]; 0-30 min after start of OGD, vehicle 28.497): 25.758 % of baseline
- averaged normalized f-EPSP slope ([2]; 30-60 min after start of OGD, vehicle 53.456): 52.556 % of baseline
- averaged normalized f-EPSP slope ([2]; 60-90 min after start of OGD, vehicle 68.774): 74.616 % of baseline
- averaged normalized f-EPSP slope ([2]; 90-120 min after start of OGD, vehicle 77.110): 88.0±1.9 % of baseline and 88.046 % of baseline
- shape of the f-EPSP recovery phase following OGD (curative effect) ([2]; NX218 250 μg/mL applied during recovery plateau, T=60 min or T=70 min after OGD initiation, preliminary, n=1 per timepoint): rising further toward baseline
- averaged normalized f-EPSP slope ([2]; last 10 min (of 120 min) after start of OGD, vehicle 79.319): 90.3±2.7 % of baseline and 90.340 % of baseline
